From US11491120B2, “Pharmacological prophylactics against stress-induced affective disorders in females” (The Trustees of Columbia University in the City of New York, priority 2017, dated 2022)
“Also recorded” adds a separate entry of the source.

Tested on: female 129S6/SvEv mice
Experiment: Contextual fear conditioning (CFC), 3-shock, freezing in training and context re-exposure
Conditions: for Freezing during CFC re-exposure vs saline: vehicle condition; for Freezing during re-exposure to the CFC training context vs saline: single i.p. injection 1 week before 3-shock CFC, all doses; for Freezing during re-exposure to the CFC training context vs saline / Attenuation of learned fear: female mice; for Attenuation of learned fear: single injection 1 week before stressor
[1] = Contextual Fear Conditioning Training, Dunnett test Sal vs. drug (2.5), 1 week prophylactic drug
[2] = Contextual Fear Conditioning Training, Dunnett test Sal vs. drug (10), 1 week prophylactic drug
[3] = Contextual Fear Conditioning Training, Dunnett test Sal vs. drug (30), 1 week prophylactic drug
[4] = Ovariectomized cohort, 1 week prophylactic drug, Contextual Fear Conditioning Re-exposure, FIG. 10B, Sham mice, K (10), (2R,6R)-HNK (0.025)
[5] = Ovariectomized cohort, 1 week prophylactic drug, Contextual Fear Conditioning Re-exposure, FIG. 10C, Sham mice, K (10), (2R,6R)-HNK (0.025)
[6] = Ovariectomized, E2/P4 replacement, 1 week prophylactic drug, Contextual Fear Conditioning Re-exposure, FIG. 10E, Vehicle (hormone) mice, K (10), (2R,6R)-HNK (0.025)
[7] = Ovariectomized, E2/P4 replacement, 1 week prophylactic drug, Contextual Fear Conditioning Re-exposure, FIG. 10F, Vehicle (hormone) mice, K (10), (2R,6R)-HNK (0.025)
[8] = Ovariectomized, E2/P4 replacement, 1 week prophylactic drug, Contextual Fear Conditioning Training, FIG. 10D, Vehicle vs E2/P4, same drug, K (10), (2R,6R)-HNK (0.025)
[9] = Sal vs. K (2.5), Fisher's PLSD, 3 day prophylactic drug/Contextual Fear Conditioning Training
[10] = Sal vs. K (10), Fisher's PLSD, 1 week prophylactic drug, learned helplessness stress, Contextual Fear Conditioning Re-exposure
[11] = Sal vs. K (10), Fisher's PLSD, 3 day prophylactic drug/Contextual Fear Conditioning Training
[12] = Sal vs. K (10), Fisher's PLSD, Stress, antidepressant drug/Contextual Fear Conditioning Training

With `CNC1(c2ccccc2Cl)CCCCC1=O` (racemic) [(R,S)-ketamine, (RS)-2-(2-chlorophenyl)-2-(methylamino)cyclohexanone] the “p, Freezing (min 1-5)” value [1] was 0.5398, the “p, Freezing (min 4)” value [1] was 0.9957 and the “p, Freezing (min 5)” value [1] was 0.2720. The “p, Freezing (min 1-5)” value [2] was over 0.9999, the “p, Freezing (min 4)” value [2] was 0.9996 and the “p, Freezing (min 5)” value [2] was 0.9996. For the same compound, the “p, Freezing (min 1-5)” value [3] was 0.9998, the “p, Freezing (min 4)” value [3] was over 0.9999 and the “p, Freezing (min 5)” value [3] was 0.9997. For the same compound, the “p, Freezing (min 1-5), Fisher's PLSD, OVX Sal vs OVX drug” value (Ovariectomized cohort, 1 week prophylactic drug, Contextual Fear Conditioning Re-exposure, FIG. 10B, OVX mice, K (10), (2R,6R)-HNK (0.025)) was 0.1532, the “* (significance), Freezing (min 1-5), Fisher's PLSD, Sham Sal vs Sham drug” value [4] was “* (* p<0.05)” and the “p, Freezing (min 1-5), Fisher's PLSD, Sham Sal vs Sham drug” value [4] was 0.0290. The “p, Freezing (min 1-5), Fisher's PLSD, Sham drug vs OVX drug” value (Ovariectomized cohort, 1 week prophylactic drug, Contextual Fear Conditioning Re-exposure, FIG. 10B, Sham vs OVX, same drug, K (10), (2R,6R)-HNK (0.025)) was 0.7813, the “p, Freezing Average (min 1-5), Fisher's PLSD, OVX Sal vs OVX drug” value (Ovariectomized cohort, 1 week prophylactic drug, Contextual Fear Conditioning Re-exposure, FIG. 10C, OVX mice, K (10), (2R,6R)-HNK (0.025)) was 0.1532 and the “* (significance), Freezing Average (min 1-5), Fisher's PLSD, Sham Sal vs Sham drug” value [5] was “* (* p<0.05)”. The “p, Freezing Average (min 1-5), Fisher's PLSD, Sham Sal vs Sham drug” value [5] was 0.0290, the “p, Freezing Average (min 1-5), Fisher's PLSD, Sham drug vs OVX drug” value (Ovariectomized cohort, 1 week prophylactic drug, Contextual Fear Conditioning Re-exposure, FIG. 10C, Sham vs OVX, same drug, K (10), (2R,6R)-HNK (0.025)) was 0.7813 and the “p, Freezing (min 1-5), Fisher's PLSD, E2/P4 Sal vs E2/P4 drug” value (Ovariectomized, E2/P4 replacement, 1 week prophylactic drug, Contextual Fear Conditioning Re-exposure, FIG. 10E, E2/P4 mice, K (10), (2R,6R)-HNK (0.025)) was 0.7946. The “* (significance), Freezing (min 1-5), Fisher's PLSD, Vehicle Sal vs Vehicle drug” value [6] was “** (** p<0.01)”, the “p, Freezing (min 1-5), Fisher's PLSD, Vehicle Sal vs Vehicle drug” value [6] was 0.0077 and the “p, Freezing (min 1-5), Fisher's PLSD, Vehicle drug vs E2/P4 drug” value (Ovariectomized, E2/P4 replacement, 1 week prophylactic drug, Contextual Fear Conditioning Re-exposure, FIG. 10E, Vehicle vs E2/P4, same drug, K (10), (2R,6R)-HNK (0.025)) was 0.2095. For the same compound, the “p, Freezing Average (min 1-5), Fisher's PLSD, E2/P4 Sal vs E2/P4 drug” value (Ovariectomized, E2/P4 replacement, 1 week prophylactic drug, Contextual Fear Conditioning Re-exposure, FIG. 10F, E2/P4 mice, K (10), (2R,6R)-HNK (0.025)) was 0.7946, the “* (significance), Freezing Average (min 1-5), Fisher's PLSD, Vehicle Sal vs Vehicle drug” value [7] was “** (** p<0.01)” and the “p, Freezing Average (min 1-5), Fisher's PLSD, Vehicle Sal vs Vehicle drug” value [7] was 0.0077. For the same compound, the “p, Freezing Average (min 1-5), Fisher's PLSD, Vehicle drug vs E2/P4 drug” value (Ovariectomized, E2/P4 replacement, 1 week prophylactic drug, Contextual Fear Conditioning Re-exposure, FIG. 10F, Vehicle vs E2/P4, same drug, K (10), (2R,6R)-HNK (0.025)) was 0.2095, the “p, Freezing (min 1-5), Fisher's PLSD, E2/P4 Sal vs E2/P4 drug” value (Ovariectomized, E2/P4 replacement, 1 week prophylactic drug, Contextual Fear Conditioning Training, FIG. 10D, E2/P4 mice, K (10), (2R,6R)-HNK (0.025)) was 0.5725 and the “p, Freezing (min 1-5), Fisher's PLSD, Vehicle Sal vs Vehicle drug” value (Ovariectomized, E2/P4 replacement, 1 week prophylactic drug, Contextual Fear Conditioning Training, FIG. 10D, Vehicle (hormone) mice, K (10), (2R,6R)-HNK (0.025)) was 0.1466. The “* (significance), Freezing (min 1-5), Fisher's PLSD, Vehicle drug vs E2/P4 drug” value [8] was “** (** p<0.01)”, the “p, Freezing (min 1-5), Fisher's PLSD, Vehicle drug vs E2/P4 drug” value [8] was 0.0004 and the “*, Freezing (min 5)” value [9] was “* (* p<0.05)”. The “p, Freezing (min 5)” value [9] was 0.0143, the “*, Freezing (min 1)” value [10] was “* (* p<0.05)” and the “p, Freezing (min 1)” value [10] was 0.0166. The “*, Freezing (min 5)” value [11] was “** (** p<0.01)”, the “p, Freezing (min 5)” value [11] was 0.0078 and the “p, Freezing (min 1-5)” value [12] was 0.1932. For the same compound, the “p, Freezing (min 5)” value [12] was 0.2639, the “p, Freezing (min 5)” value (Sal vs. K (30), Fisher's PLSD, 3 day prophylactic drug/Contextual Fear Conditioning Training) was 0.0606 and the “Freezing during CFC Training, E2/P4+drug vs vehicle+drug” value (ovariectomized mice, hormone replacement) was “froze significantly more”. For the same compound, the “Freezing during CFC re-exposure vs saline” value (ovariectomized mice) was “displayed altered freezing”, the “Freezing during CFC re-exposure vs saline” value (ovariectomized mice, listed as (R, S)-ketamine) was “froze significantly less than saline mice” and the “Freezing during re-exposure to the CFC training context vs saline” value (listed as (R, S)-ketamine) was “did not alter fear encoding or fear retrieval; also recorded: did not alter overall freezing”. The “Freezing during re-exposure to the CFC training context vs saline” value (listed as Racemic ketamine) was “do not significantly alter freezing”, the “Attenuation of learned fear” value was “do not attenuate learned fear” and the “Attenuation of learned fear” value (listed as (R, S)-ketamine) was “do not attenuate learned fear; also recorded: do not alter learned fear”.
